# Biological target: Dephosphorylated BTK (Homo sapiens, UniProt Q06187)
# Assay: Test of activity inhibition against dephosphorylated BTK (mobility shift assay)
# Sequence of Dephosphorylated BTK (Q06187 whole entry): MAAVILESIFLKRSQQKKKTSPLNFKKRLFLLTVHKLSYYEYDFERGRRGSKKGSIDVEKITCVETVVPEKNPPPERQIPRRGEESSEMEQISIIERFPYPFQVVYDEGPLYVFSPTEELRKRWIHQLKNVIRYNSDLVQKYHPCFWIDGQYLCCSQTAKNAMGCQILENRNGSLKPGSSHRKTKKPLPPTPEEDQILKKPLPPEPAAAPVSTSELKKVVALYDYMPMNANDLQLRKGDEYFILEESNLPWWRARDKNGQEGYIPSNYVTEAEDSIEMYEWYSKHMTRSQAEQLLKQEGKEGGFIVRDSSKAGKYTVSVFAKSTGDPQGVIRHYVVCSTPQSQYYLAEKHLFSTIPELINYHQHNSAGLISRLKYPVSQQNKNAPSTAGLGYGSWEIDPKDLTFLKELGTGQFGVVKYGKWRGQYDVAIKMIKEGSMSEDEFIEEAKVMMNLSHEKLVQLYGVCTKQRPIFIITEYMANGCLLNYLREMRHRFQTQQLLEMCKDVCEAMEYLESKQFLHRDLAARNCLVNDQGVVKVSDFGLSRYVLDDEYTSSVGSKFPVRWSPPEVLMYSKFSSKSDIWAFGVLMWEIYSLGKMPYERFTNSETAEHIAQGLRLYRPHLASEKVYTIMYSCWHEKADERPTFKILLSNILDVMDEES
row,SMILES,IC50
1,"CC(C)(C)c1ccc(C(=O)Nc2cccc(-c3ncnc(Nc4ccc(C(=O)N5CCOCC5)cc4)n3)c2CO)cc1 [Example 115, 4-(tert-Butyl)-N-[2-(hy-droxymethyl)-3-(4-{[4-(morpholine-4-carbo-nyl)phenyl]amino}-1,3,5-triazin-2-yl)phe-nyl]benzamide]",9.4 nM
2,"CC(C)(C)OC(=O)Nc1ccc(Nc2nc(N)nc(-c3cccc(NC(=O)c4ccc(C(C)(C)C)cc4)c3CO)n2)cc1 [Example 120, tert-Butyl {4-[(4-amino-6-{3-[4-(tert-butyl)benzamido]-2-(hydroxymethyl)phe-nyl}-1,3,5-triazin-2-yl)amino]phenyl}carbamate]",5.5 nM
3,"Cc1cc(Nc2nc(N)nc(-c3cccc(NC(=O)c4ccc(C(C)(C)C)cc4)c3CO)n2)cc(C)c1O [Example 123, N-(3-{4-Amino-6-[(4-hy-droxy-3,5-dimethyl-phenyl)amino]-1,3,5-tri-azin-2-yl}-2-(hydroxy-methyl)phenyl)-4-(tert-butyl)benzamide]",1.4 nM
4,"CN(C)CCCOc1ccc(Nc2nc(N)nc(-c3cccc(NC(=O)c4cc5c(s4)CCCC5)c3CO)n2)cc1 [Example 135, N-{3-[4-Amino-6-({4-[3-(dimethylamino)prop-oxy]phenyl}amino)-1,3,5-triazin-2-yl]-2-(hy-droxymethyl)phenyl}-4,5,6,7-tetrahydro-benzo[b]thiophene-2-carboxamide]",1.3 nM
5,"Nc1nc(Nc2ccc(O)cc2)nc(-c2cccc(NC(=O)c3cc4c(s3)CCCC4)c2CO)n1 [Example 136, N-(3-{4-Amino-6-[(4-hy-droxyphenyl)amino]-1,3,5-triazin-2-yl}-2-(hydroxymethyl)phenyl)-4,5,6,7-tetrahydro benzo[b]thiophene-2-carboxamide]",1.3 nM
6,"Nc1nc(Nc2ccc(OCCN3CCOCC3)cc2)nc(-c2cccc(NC(=O)c3cc4c(s3)CCCC4)c2CO)n1 [Example 138, N-[3-(4-Amino-6-{[4-(2-morpholinoethoxy)phe-nyl]amino}1,3,5-tri-azin-2-yl)-2-(hydroxy-methyl)phenyl]-4,5,6,7-tetrahydrobenzo[b]thio-phene-2-carboxamide]",1.7 nM
7,"CC1CCc2sc(C(=O)Nc3cccc(-c4nc(N)nc(Nc5ccc(N6CCOCC6)cc5)n4)c3CO)cc2C1 (stereo not shown) [Example 139, N-(3-{4-Amino-6-[(4-morpholinophenyl)amino]-1,3,5-triazin-2-yl}-2-(hydroxymethyl)phe-nyl)-5-methyl-4,5,6,7-tetrahydrobenzo[b] thiophene-2-carboxamide]",1.6 nM
8,"CC(C)(C)c1ccc(C(=O)Nc2cccc(-c3nc(N)nc(Nc4ccc5[nH]ncc5c4)n3)c2CO)cc1 [Example 140, N-(3-{4-[(1H-Indazol-5-yl)amino]-6-amino-1,3,5-triazin-2-yl}-2-(hydroxymethyl)phenyl)-4-(tert-butyl)benzamide]",1.7 nM
9,"CC(C)(C)c1ccc(C(=O)Nc2cccc(-c3nc(N)nc(Nc4ccc5[nH]c(=O)[nH]c5c4)n3)c2CO)cc1 [Example 141, N-(3-{4-Amino-6-[(2-oxo-2,3-dihydro-1H-ben-zo[d]imidazol-5-yl)ami-no]-1,3,5-triazin-2-yl}-2-(hydroxymethyl)phenyl)-4-(tert-butyl) benzamide]",1.2 nM
10,"COC(=O)c1cccc(Nc2nc(N)nc(-c3cccc(NC(=O)c4ccc(C(C)(C)C)cc4)c3CO)n2)c1 [Example 142, Methyl 3-[(4-amino-6-{3-[4-(tert-butyl)benzamido]-2-(hydroxymethyl)phe-nyl}-1,3,5-triazin-2-yl)amino]benzoate]",3.1 nM
11,"CC(C)(C)c1ccc(C(=O)Nc2cccc(-c3nc(N)nc(Nc4ccc5nc[nH]c5c4)n3)c2CO)cc1 [Example 144, N-(3-{4-[(1H-Benzo[d]imidazol-6-yl)amino]-6-amino-1,3,5-triazin-2-yl}-2-(hydroxymeth-yl)phenyl)-4-(tert-butyl)benzamide]",1.9 nM

# Continued, values first:
row,IC50,SMILES
1,0.9 nM,"Cc1cc(Nc2nc(N)nc(-c3cccc(NC(=O)c4ccc(C(C)(C)C)cc4)c3CO)n2)ccc1O [Example 117, N-(3-{4-Amino-6-[(4-hy-droxy-3-methylphenyl)amino]-1,3,5-triazin-2-yl)-2-(hydroxymeth-yl)phenyl)-4-(tert-butyl)benzamide]"
2,0.8 nM,"CC(C)(C)c1ccc(C(=O)Nc2cccc(-c3nc(N)nc(Nc4ccc(S(N)(=O)=O)cc4)n3)c2CO)cc1 [Example 118, N-(3-{4-Amino-6-[(4-sulfa-moylphenyl)amino]-1,3,5-triazin-2-yl}-2-(hydroxymethyl)phe-nyl)-4-(tert-butyl)benz-amide]"
3,0.8 nM,"CC(=O)Nc1ccc(Nc2nc(N)nc(-c3cccc(NC(=O)c4ccc(C(C)(C)C)cc4)c3CO)n2)cc1 [Example 119, N-(3-{4-[(4-Acetamido-phenyl)amino]-6-amino-1,3,5-triazin-2-yl}-2-(hydroxymethyl)phe-nyl)-4-(tert-butyl)benz-amide]"
4,1.2 nM,"CC(C)(C)c1ccc(C(=O)Nc2cccc(-c3nc(N)nc(Nc4cccc(O)c4)n3)c2CO)cc1 [Example 121, N-(3-{4-Amino-6-[(3-hy-droxyphenyl)amino]-1,3,5-triazin-2-yl}-2-(hydroxymethyl)phenyl)-4-(tert-butyl)benza-mide]"
5,0.8 nM,"CC(C)(C)c1ccc(C(=O)Nc2cccc(-c3nc(N)nc(Nc4cccc(CO)c4)n3)c2CO)cc1 [Example 122, N-[3-(4-Amino-6-{[3-(hy-droxymethyl)phenyl]amino}-1,3,5-triazin-2-yl)-2-(hydroxymethyl)phenyl]-4-(tert-butyl)benzamide]"
6,0.5 nM,"CC(C)(C)c1ccc(C(=O)Nc2cccc(-c3nc(N)nc(Nc4ccc(N5CCS(=O)(=O)CC5)cc4)n3)c2CO)cc1 [Example 124, N-[3-(4-Amino-6-{[4-(1,1-dioxidothiomorpho-lino)phenyl]amino}-1,3,5-triazin-2-yl)-2-(hy-droxymethyl)phenyl]-4-(tert-butyl)benzamide]"
7,0.8 nM,"CC(C)(C)c1ccc(C(=O)Nc2cccc(-c3nc(N)nc(Nc4ccc(N5CCCC(O)C5)cc4)n3)c2CO)cc1 (stereo not shown) [Example 125, N-[3-(4-Amino-6-{[4-(3-hydroxypiperidin-1-yl)phenyl]amino}-1,3,5-triazin-2-yl)-2-(hy-droxymethyl)phenyl]-4-(tert-butyl)benzamide]"
8,0.5 nM,"CC(C)(C)c1ccc(C(=O)Nc2cccc(-c3nc(N)nc(Nc4ccc(N5CCNCC5)cc4)n3)c2CO)cc1 [Example 126, N-[3-(4-Amino-6-{[4-(piperazin-1-yl)phenyl]amino}-1,3,5-triazin-2-yl)-2-(hydroxymeth-yl)phenyl]-4-(tert-butyl)benzamide]"
9,0.5 nM,"Nc1nc(Nc2ccc(N3CCOC(CO)C3)cc2)nc(-c2cccc(NC(=O)c3cc4c(s3)CCCC4)c2CO)n1 (stereo not shown) [Example 127, N-{3-[4-Amino-6-({4-[2-(hydroxymethyl)morpho-lino]phenyl}amino)-1,3,5-triazin-2-yl]-2-(hydroxymethyl)phenyl}-4,5,6,7-tetrahydro-benzo[b]thiophene-2-carboxamide]"
10,0.6 nM,"Nc1nc(Nc2ccc(N3CCC(O)CC3)cc2)nc(-c2cccc(NC(=O)c3cc4c(s3)CCCC4)c2CO)n1 [Example 128, N-[3-(4-Amino-6-{[4-(4-hydroxypiperidin-1-yl)phenyl]amino}-1,3,5-triazin-2-yl)-2-(hy-droxymethyl)phenyl]-4,5,6,7-tetrahydrobenzo [b]thiophene-2-carbox-amide]"
11,0.6 nM,"COCCN(CCOC)Cc1ccc(Nc2nc(N)nc(-c3cccc(NC(=O)c4cc5c(s4)CCCC5)c3CO)n2)cc1 [Example 129, N-(3-{4-Amino-6-[(4-{[bis (2-methoxyethyl)a-mino]methyl}phenyl)ami-no]-1,3,5-triazin-2-yl}-2-(hydroxymethyl)phenyl)-4,5,6,7-tetra-hydrobenzo[b]thiophene-2-carboxamide]"
12,0.5 nM,"CN1CCN(C)C(c2ccc(Nc3nc(N)nc(-c4cccc(NC(=O)c5cc6c(s5)CCCC6)c4CO)n3)cc2)C1=O (stereo not shown) [Example 130, N-[3-(4-Amino-6-{[4-(1,4-dimethyl-3-oxopipe-razin-2-yl)phenyl]ami-no}-1,3,5-triazin-2-yl)-2-(hydroxymethyl)phenyl]-4,5,6,7-tetra-hydrobenzo[b]thiophene-2-carboxamide]"
13,0.4 nM,"COCCOc1ccc(Nc2nc(N)nc(-c3cccc(NC(=O)c4cc5c(s4)CCCC5)c3CO)n2)cc1OCCOC [Example 131, N-[3-(4-Amino-6-{[3,4-bis(2-methoxyethoxy)phenyl]amino}-1,3,5-tri-azin-2-yl)-2-(hydroxy-methyl)phenyl]-4,5,6,7-tetrahydrobenzo[b] thiophene-2-carboxamide]"
14,0.5 nM,"Nc1nc(Nc2ccc(CN3CCOCC3)cc2)nc(-c2cccc(NC(=O)c3cc4c(s3)CCCC4)c2CO)n1 [Example 132, N-[3-(4-Amino-6-{[4-(mor-pholinomethyl)phe-nyl]amino}-1,3,5-triazin-2-yl)-2-(hydroxymeth-yl)phenyl]-4,5,6,7-tetrahydrobenzo[b]thio-phene-2-carboxamide]"
15,0.4 nM,"Nc1nc(Nc2ccc(Cn3ccnc3)cc2)nc(-c2cccc(NC(=O)c3cc4c(s3)CCCC4)c2CO)n1 [Example 133, N-{3-[4-({4-[(1H-Imida-zol-1-yl)methyl]phe-nyl}amino)-6-amino-1,3,5-triazin-2-yl]-2-(hy-droxymethyl)phenyl}-4,5,6,7-tetrahydroben-zo[b]thiophene-2-carboxamide]"
16,0.9 nM,"COCCOc1ccc(Nc2nc(N)nc(-c3cccc(NC(=O)c4cc5c(s4)CCCC5)c3CO)n2)cc1 [Example 134, N-[3-(4-Amino-6-{[4-(2-methoxyethoxy)phenyl]amino}-1,3,5-triazin-2-yl)-2-(hydroxymeth-yl)phenyl]-4,5,6,7-tetra-hydrobenzo[b]thio-phene-2-carboxamide]"
17,0.9 nM,"Nc1nc(Nc2ccc(N3CCCC(O)C3)cc2)nc(-c2cccc(NC(=O)c3cc4c(s3)CCCC4)c2CO)n1 (stereo not shown) [Example 143, N-[3-(4-Amino-6-{[4-(3-hydroxypiperidin-1-yl)phenyl]amino}-1,3,5-triazin-2-yl)-2-(hy-droxymethyl)phenyl]-4,5,6,7-tetrahydrobenzo [b]thiophene-2-carbox-amide]"
